Measurements as given in patent US8614220B2, “Substituted pyrazolo-quinazoline derivatives, process for their preparation and their use as kinase inhibitors” (priority 2006, dated 2013).

System: A2780 human ovarian cancer cells
Assay: In vitro cell proliferation assay (CellTiter-Glo, 72 hours)
Format: cell-based
Protocol: In Vitro Cell Proliferation Assay
A2780 human ovarian and MCF7 human breast cancer cells (1250 cells/well) were seeded in white 384 well-plates in complete medium (RPMI1640 or EMEM plus 10% Fetal bovine serum) and treated with compounds dissolved in 0.1% DMSO, 24 h after seeding. The cells were incubated at 37° C. and 5% CO2 and after 72 hours the plates were processed using CellTiter-Glo assay (Promega) following the manufacturer's instruction.
CellTiter-Glo is a homogenous method based on the quantification of the ATP present, an indicator of metabolitically active cells. ATP is quantified using a system based on luciferase and D-luciferin resulting into light generation. The luminescent signal is proportional to the number of cells present in culture.
Briefly 25 microL/well reagent solution are added to each wells and after 5 minutes shacking microplates are red by a luminometer. The luminescent signal is proportional to the number of cells present in culture.

`NC(=O)c1nn(CCF)c2c1CCc1cnc(Nc3ccccc3OC(F)(F)F)nc1-2` [Code A45B2C1Z] and `CN(C)CCCN1CCN(c2ccc(OC(F)(F)F)c(Nc3ncc4c(n3)-c3c(c(C(N)=O)nn3C)CC4)c2)CC1` [Code A101B1C1Z] are within 1.5-fold of each other in IC50: 500 nM for the first, 520 nM for the second.

First: Cc1ccc(N2CCN(C)CC2)cc1Nc1ncc2c(n1)-c1c(c(C(=O)O)nn1C)CC2 [Code A98B1C3Z]
Second: COc1ccc(CO)cc1Nc1ncc2c(n1)-c1c(c(C(N)=O)nn1C)CC2 [Code A47B1C1Z]
The IC50 of the first is 8.8-fold higher: 1300 nM for the first, 147 nM for the second.
